Where “and” joins values, the source holds several entries; their conditions need not be identical. Equal values may be shown once. Entries after “also recorded” stand apart in the source; their conditions may differ.
Key:
sigma-2 receptors [1] = molecular target: T1, sigma-2 receptors (Rattus norvegicus, UniProt Q5U3Y7); assay: Sigma-2 radioligand binding assay ([3H]-DTG, rat liver membranes)
T1 construct: in rat liver membranes; from tissue; host or cells: rat liver membranes
Experimental: Sigma-2 receptor binding was carried out according to Berardi et al.. […] Concentrations required to inhibit 50 % of radioligand-specific binding (IC50) were determined using six to nine different concentrations of the drug in two or three experiments with samples in duplicate. Scatchard parameters (Kd and Bmax) and apparent inhibition constant (Ki) values were determined by nonlinear curve fitting, using Prism version 5.0, GraphPad software.

sigma-2 receptors [2] = molecular target: T2, sigma-2 receptors (Homo sapiens, UniProt Q5BJF2); assay: Flow cytometry displacement of sigma-2 fluorescent ligand NO1 in human pancreatic cancer cells; type: binding
T2 construct: endogenous in cells; host or cells: MiaPaCa2, PANC-1, AsPC1 (whole cells)
T2 sequence (Q5BJF2 whole entry): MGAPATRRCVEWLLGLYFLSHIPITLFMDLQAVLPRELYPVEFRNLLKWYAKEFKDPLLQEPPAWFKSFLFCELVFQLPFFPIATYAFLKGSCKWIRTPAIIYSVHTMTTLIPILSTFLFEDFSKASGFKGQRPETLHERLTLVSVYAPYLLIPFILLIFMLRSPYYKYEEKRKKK
Experimental: Flow cytometry studies to detect receptor densities and ligand binding affinities were carried out according to Abate et al. and Niso et al., for the sigma-1 and sigma-2 receptors, respectively. […] At the end of the incubation periods, the cells were washed twice with PBS, detached with […] Cell Dissociation Solution (Sigma Chemical Co.) for 10 min at 37 °C, centrifuged at 13,000 g for 5 min and resuspended in 500 µl PBS. Fluorescence was recorded using a Bio-Guava® easyCyte™ 5 Flow Cytometry System (Millipore, Billerica, MA, USA) equipped with a 530 nm band pass filter. For each analysis, 50,000 events were collected and analyzed using InCyte software (Millipore).

sigma-1 receptors = molecular target: T3, sigma-1 receptors (Homo sapiens, UniProt Q99720); assay: Flow cytometry displacement of sigma-1 fluorescent ligand LM1 in human pancreatic cancer cells; type: binding
T3 construct: endogenous in cells; host or cells: PANC-1, MiaPaCa2 (whole cells)
T3 sequence (Q99720 whole entry): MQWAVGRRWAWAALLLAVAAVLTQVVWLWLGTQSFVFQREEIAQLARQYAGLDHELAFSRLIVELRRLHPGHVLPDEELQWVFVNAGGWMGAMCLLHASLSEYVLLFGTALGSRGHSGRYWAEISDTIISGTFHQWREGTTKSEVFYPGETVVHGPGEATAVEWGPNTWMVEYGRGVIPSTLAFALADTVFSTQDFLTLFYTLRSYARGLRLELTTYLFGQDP
Experimental: (10 µM) was co-incubated. At the end of the incubation periods, the cells were washed twice with PBS, detached with […] Cell Dissociation Solution (Sigma Chemical Co.) for 10 min at 37 °C, centrifuged at 13,000 g for 5 min and resuspended in 500 µl PBS. Fluorescence was recorded using a Bio-Guava® easyCyte™ 5 Flow Cytometry System (Millipore, Billerica, MA, USA), equipped with a 530 nm band pass filter. For each analysis, 50,000 events were collected and analyzed using InCyte software (Millipore).

AspC1 cells = assay: Cell viability MTT assay 48 h; type: cell-based; conditions: Homo sapiens, MTT 48 h, read-out: Activity EC50 ± SEM, AspC1
Experimental: (§1) Cell viability was assessed using a MTT assay at 48 h. On day 1, 25,000 cells/well were seeded into 96-well plates in 100 µl culture medium. On day 2, drugs at concentrations ranging from 1 µM to 100 µM were added. In all experiments the drug-solvents (EtOH, DMSO) were added as controls to evaluate possible solvent cyto-toxicities. After the established incubation time with drugs (48 h), MTT (0.5 mg/ml) was added to each well, and after 3–4 h incubation at 37 °C, the supernatants were removed. The formazan crystals formed were solubilized using 100 µl DMSO/EtOH (1:1) after which the absorbance values at 570 and 630 nm were determined using a microplate reader Victor 3 from PerkinElmer Life Sciences.

BxPC3 cells = assay: Cell viability MTT assay 48 h; type: cell-based; conditions: Homo sapiens, BXPC-3; MTT 48 h; read-out: Activity EC50 ± SEM, BxPC3
Experimental: as §1

HPDE cells = assay: Cell viability MTT assay 48 h; type: cell-based; conditions: Homo sapiens, MTT 48 h, read-out: Activity EC50 ± SEM, HPDE (normal cells)
Experimental: as §1

KP02 cells = assay: Cell viability MTT assay 48 h; type: cell-based; conditions: Mus musculus; MTT 48 h; read-out: Activity EC50 ± SEM, KP02
Experimental: as §1

MiaPaCa2 cells = assay: Cell viability MTT assay 48 h; type: cell-based; conditions: Homo sapiens, MIA PaCa-2; MTT 48 h; read-out: Activity EC50 ± SEM, MiaPaCa2
Experimental: as §1

PANC-1 cells = assay: Cell viability MTT assay 48 h; type: cell-based; conditions: Homo sapiens
Experimental: as §1

caspase 3 = assay: Caspase 3 activity assay in pancreatic cancer cells; type: cell-based, human and murine; conditions: 2 h
Experimental: Caspase 3, caspase 7 and caspase 9 activation was measured using a Caspase 3/7 Fluorescence Assay kit (Cayman Chemical, Ann Arbor, MI, USA) and a Caspase 9 fluorometric assay kit (Enzo Life Science, Roma, Italy). The results are expressed as nmol of the hydrolyzed substrate of each caspase/mg cellular proteins, according to a previously set titration curve.

[3] = system: GRP78, ATF6, IRE1 and PERK; assay: Western blotting of ER stress markers in pancreatic cancer cells; type: cell-based, human and murine; conditions: 50 µM, 2 h
Experimental: (§2) Cells were rinsed with ice-cold lysis buffer (50 mM, Tris, 10 mM EDTA, 1 % v/v Triton-X100), supplemented with protease inhibitor cocktail set III (80 µM aprotinin, 5 mM bestatin, 1.5 mM leupeptin, 1 mM pepstatin; Calbiochem, San Diego, CA, USA), 2 mM phenylmethylsulfonyl fluoride and 1 mM Na3VO4, then sonicated and centrifuged at 13,000 g for 10 min at 4 °C. 20 µg protein extracts were subjected to SDS-PAGE and probed with antibodies directed against ATG5, ATG7, ATG12, beclin, p62, LC3, GRP78, ATF6, IRE-1α and PERK (all from Abcam, Cambridge, UK), followed by incubation with a peroxidase-conjugated secondary antibody (Bio-Rad Laboratories). Next, the membranes were washed with Tris-buffered saline-Tween 0.1 % v/v solution, and proteins were detected by enhanced chemiluminescence (Bio-Rad Laboratories). To check for equal loading, the samples were probed with an anti-β-tubulin antibody (Santa Cruz Biotechnology Inc., Santa Cruz, CA, USA).

[4] = system: ATG5, ATG7, ATG12, beclin 1, p62, LC3; assay: Western blotting of autophagy and sequestration markers; type: cell-based, human and murine; conditions: 50 µM, 2 h
Experimental: as §2

[5] = mouse, in vivo
Experimental: (§3) 2 × 10^5 PANC-1 or Mia-PaCa2 cells were inoculated subcutaneously in the right flank of 6-week old C57BL/6 female nude mice (Charles River Laboratories Italia, Calco), housed (5 per cage) under a 12 h light/dark cycle, with food and drinking water provided ad libitum. Tumor growth was measured daily by caliper, according to the equation (LxW^2)/2, where L = tumor length and W = tumor width. […] Tumor volumes and animal weights were monitored daily. Animals were euthanized at day 18 or 36 after randomization with zolazepam (0.2 ml/kg) and xylazine (16 mg/kg). […] Red blood cell (RBC) count, hemoglobin (Hb), white blood cell (WBC) count, platelet (PLT) count, lactate dehydrogenase (LDH), aspartate aminotransferase (AST), alanine aminotransferase (ALT), alkaline phosphatase (AP), creatinine and creatine phosphokinase (CPK) were measured in blood samples collected immediately after euthanasia, using commercially available kits from Beckman Coulter Inc (Beckman Coulter, Miami, FL, USA).
(§4) Blood was collected immediately after euthanasia and analyzed for red blood cells (RBC) count, hemoglobin (Hb), white blood cells (WBC) count, platelets (PLT) count, lactate dehydrogenase (LDH), aspartate aminotransferase (AST), alanine aminotransferase (ALT), alkaline phosphatase (AP), creatinine, creatine phosphokinase (CPK). Data are presented as means ± SD.

[6] = Systemic toxicity and hematochemical parameters of treated PANC-1 tumor-bearing mice; conditions: PANC-1 tumor-bearing mice, 30 days treatment
Experimental: as §3, §4

T1 sequence (Q5U3Y7 whole entry): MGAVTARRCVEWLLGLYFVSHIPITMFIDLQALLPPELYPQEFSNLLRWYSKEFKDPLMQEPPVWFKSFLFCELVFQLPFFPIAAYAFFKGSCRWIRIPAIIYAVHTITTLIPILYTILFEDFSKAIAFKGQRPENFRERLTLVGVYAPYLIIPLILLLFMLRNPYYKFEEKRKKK

`CN(C)C(=S)N/N=C1\C(=O)N(CCCCN2CCC3(CC2)OCc2ccccc23)c2ccccc21` [FA4, (Z)-2-(1-(4-(3 H-spiro[isobenzofuran-1,4’-piperidine]-1’-yl)butyl)-2-oxoindolin-3-ylidene)-N,N-dimethylhydrazinecarbothioamide] showed a Ki (sigma-2 receptors [1]) of 15.8 ± 3.6 nM, an IC50 (sigma-2 receptors [2]; Flow Cytometry, IC50 ± SEM, Sigma-2, AspC1, AspC1 cells, displacement of NO1) of 10.6 ± 2.2 nM and an IC50 (sigma-2 receptors [2]; Flow Cytometry, IC50 ± SEM, Sigma-2, MiaPaCa2, MiaPaCa2 cells, displacement of NO1) of 9.13 ± 1.1 nM. For the same compound, the IC50 (sigma-2 receptors [2]; Flow Cytometry, IC50 ± SEM, Sigma-2, PANC-1, PANC-1 cells, displacement of NO1) was 11.4 ± 2.3 nM, the IC50 (sigma-2 receptors [2]; IC50 at sigma-2 receptors by flow cytometry, across MiaPaCa2, PANC-1, Aspc1 and (murine) KP02 cells) was 9.13 to 11.6 nM and ~10 nM and the IC50 (sigma-1 receptors; Flow Cytometry, IC50 ± SEM, Sigma-1, MiaPaCa2, MiaPaCa2 cells, displacement of LM1) was 53.2 ± 5.6 nM. For the same compound, the IC50 (sigma-1 receptors; Flow Cytometry, IC50 ± SEM, Sigma-1, PANC-1, PANC-1 cells, displacement of LM1) was 51.3 ± 4.3 nM, the IC50 (sigma-1 receptors; IC50 at sigma-1 receptor by flow cytometry (discussion), PANC-1 and MiaPaCa2 cells) was ~50 nM and the “lower affinity for the sigma-1 receptor compared to the sigma-2 receptor” value (sigma-1 receptors; flow cytometry IC50 values) was 5 fold. The EC50 (AspC1 cells) was 1390 ± 300 nM, the EC50 (BxPC3 cells) was 1360 ± 200 nM and the EC50 (HPDE cells) was 6110 ± 1100 nM. It also gave an EC50 (KP02 cells) of 880 ± 100 nM, an EC50 (MiaPaCa2 cells) of 1980 ± 400 nM and an EC50 (PANC-1 cells; MTT 48 h, read-out: Activity EC50 ± SEM, PANC-1) of 3010 ± 800 nM. The IC50 (PANC-1 cells; read-out: IC50 in PANC1 cells (discussion)) was 3010 nM, the “caspase 3 activation” value (caspase 3; 50 µM, MiaPaCa2, PANC-1, AspC1, KP02, PANC02 cells) was “activated caspase 3 in all the cell lines investigated; also recorded: most potent inducer of caspase 3 in all cell lines tested” and the “induction of caspases 3, 7, 9 at IC50 concentration” value (caspase 3; concentration corresponding to IC50 in each cell line) was “significant inducer of caspases in all the cell lines analyzed, except for MiaPaCa2”. The “protein expression of ER stress sensors and executers (Western blot)” value [3] was “in all cell lines except MiaPaCa2, this thiosemicarbazone was able to increase the expression of ER stress sensors and executers”, the “levels of autophagosome proteins, p62 and LC3 conversion” value [4] was “reduced the levels of all the above-mentioned proteins as well as the LC-I/LC-II conversion in responsive cells, but not in MiaPaCa2 cells” and the “blood cell counts and hemato-chemical parameters vs control” value [5] was “no significant differences”. For the same compound, the “treatment-related deaths, weight loss, abnormalities in behavior” value [6] was “No treatment-related deaths, weight loss or abnormalities in mouse behavior were observed”.
